A word on the IC50: it is the concentration that inhibits the measured activity by half.

We go through 27 compounds from US11365192B2, “Pyridine compound substituted with azole” (TAISHO PHARMACEUTICAL CO., LTD., priority 2017, dated 2022).

The structures appear in SMILES notation.

What all share (format): biochemical
Test [1] concerns the target human CYP4F2 (Homo sapiens (Human), UniProt P78329). In words: Inhibition test against 20-HETE producing enzyme CYP4F2 (luciferine derivative, luminescence). The essentials:
(§1)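 IC50 derived from luminescence after 60 min at room temperature with membrane fractions of E. coli expressing each human CYP (100 μg/mL protein). For CYP4A11, 60 μM luciferin derivative in 100 mM Tris-HCl pH 7.5 with NADPH-regenerating system; for CYP4F2, 2.5 μM substrate, 1 mM NADPH, 50 mM KPO4 pH 7.4.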

Test [2] concerns the target human CYP4A11 (Homo sapiens (Human), UniProt Q02928). Kind of test: Inhibition test against 20-HETE producing enzyme CYP4A11 (luciferine derivative, luminescence). In short, it runs like this:
as §1

Test [3] relates to 20-HETE producing enzymes, human kidney microsome. Kind of test: Inhibition test against 20-HETE producing enzymes using human kidney microsomes (LC-MS/MS). The note with it: for inhibitory activities against 20-HETE producing enzymes compared to compound A and compound B: comparison with compound A and compound B of WO03/022821, human kidney microsomes; for IC50: human kidney microsome 250 μg/mL protein, 20 μM arachidonic acid, 37° C. 45 minutes, LC-MS/MS. How it is done:
(1) Inhibition Test for Each Compound of the Present Invention Against 20-HETE Producing Enzymes Using Human Kidney Microsomes
The reaction solution containing each compound [final concentration of 100 mM, KPO4 (pH 7.4), 20 μM Arachidonic acid, 4 mM NADPH] was added to the human kidney microsome (250 μg/mL protein). Following this, the microsome was left to stand at 37° C. for 45 minutes to perform 20-HETE producing reaction. After adding formic acid to stop the reaction, 9 times amount of acetonitrile was added, and deproteinization was carried out by centrifugation (1000 rpm, 4° C., 10 minutes). After that, the peak area value of 20-HETE was measured using a liquid chromatograph-tandem mass spectrometer (LC-MS/MS), and by using that value, the percent inhibition of 20-HETE producing enzyme (%) was calculated according to the equation described below, and the 50% inhibitory concentration (IC50 value) for each compound was calculated. Percent inhibition of 20-HETE producing enzyme (%)=[1−(A−B)/(C−B)]*100
A: Peak area value of 20-HETE/peak area value of internal standard substance with addition of compound
B: Peak area value of 20-HETE/peak area value of internal standard substance without addition of compound and NADPH
C: Peak area value of 20-HETE/peak area value of internal standard substance without addition of compound
(3) Inhibition Test for Compound a and Compound B Disclosed in WO03/022821 Against 20-HETE Producing Enzymes Using Human Kidney Microsomes
For compound A and compound B disclosed in WO03/022821, which have been described above, the 50% inhibitory concentration (IC50 value) against 20-HETE producing enzymes was calculated according to the method described in Test Example 2.
On the other hand, as described above, in Test Example 2, nonradioactive arachidonic acid was used as a substrate for 20-HETE producing reaction, and the amount of 20-HETE produced was measured using LC-MS/MS. In this case, the concentration of arachidonic acid, the substrate, is 20 μM.
In recent years, it is recommended that the substrate concentration for calculating the IC50 value be set at the Km value (Assay Guidance Manual, Sittampalam et. al. (URL: http://www.ncbi.nlm.nih.gov/books/NBK53196/)). According to this, in Test Example 2 described above, human kidney microsomes were used to calculate the Km value, and the calculated Km value of 20 μM was set as the concentration of the substrate, arachidonic acid.

Where [4] appears, read: E. coli membrane fraction expressing human CYP4F2, 2.5 μM luciferine derivative, room temperature 60 minutes.
The mark [5] stands for this setting: E. coli membrane fraction expressing human CYP4A11, 60 μM luciferine derivative, room temperature 60 minutes.
[6] abbreviates: human CYP4F2, luciferine derivative, luminescence.
The mark [7] stands for this setting: human CYP4A11, luciferine derivative, luminescence.

human CYP4F2, sequence (P78329 5-520): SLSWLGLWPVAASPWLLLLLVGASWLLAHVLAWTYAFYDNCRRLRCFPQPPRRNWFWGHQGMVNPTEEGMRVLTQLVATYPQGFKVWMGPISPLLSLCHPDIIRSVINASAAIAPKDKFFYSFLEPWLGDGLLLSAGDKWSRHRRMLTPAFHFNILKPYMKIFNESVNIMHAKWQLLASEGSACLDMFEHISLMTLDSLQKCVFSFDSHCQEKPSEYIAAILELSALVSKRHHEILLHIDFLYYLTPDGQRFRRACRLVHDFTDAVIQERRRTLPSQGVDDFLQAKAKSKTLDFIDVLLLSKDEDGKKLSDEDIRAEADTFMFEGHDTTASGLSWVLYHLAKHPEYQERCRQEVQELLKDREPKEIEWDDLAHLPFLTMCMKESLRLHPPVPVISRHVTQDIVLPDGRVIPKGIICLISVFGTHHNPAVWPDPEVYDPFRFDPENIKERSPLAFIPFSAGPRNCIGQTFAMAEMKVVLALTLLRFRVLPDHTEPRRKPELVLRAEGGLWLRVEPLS
human CYP4A11, sequence (Q02928 5-519): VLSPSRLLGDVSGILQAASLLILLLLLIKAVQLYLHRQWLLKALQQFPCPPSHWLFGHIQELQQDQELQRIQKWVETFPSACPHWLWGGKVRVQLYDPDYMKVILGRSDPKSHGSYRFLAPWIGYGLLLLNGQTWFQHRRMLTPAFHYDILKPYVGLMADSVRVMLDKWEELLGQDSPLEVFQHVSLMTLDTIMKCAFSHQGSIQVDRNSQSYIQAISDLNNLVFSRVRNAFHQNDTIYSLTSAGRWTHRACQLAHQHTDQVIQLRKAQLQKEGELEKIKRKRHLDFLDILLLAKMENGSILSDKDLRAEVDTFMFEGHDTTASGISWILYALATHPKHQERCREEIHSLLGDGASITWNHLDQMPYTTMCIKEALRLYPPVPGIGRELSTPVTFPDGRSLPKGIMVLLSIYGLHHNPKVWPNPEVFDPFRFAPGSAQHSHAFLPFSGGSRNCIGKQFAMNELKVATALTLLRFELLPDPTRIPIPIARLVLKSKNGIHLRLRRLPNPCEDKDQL

In the case of `O=C(O)C1CC1c1cccc(COc2ccc(-c3ccn[nH]3)nc2)c1` (single isomer, unassigned) [Example 26-2, trans-2-[3-[[6-(1H-Pyrazol-5-yl)-3-pyridinyl]oxymethyl]phenyl]-1-cyclopropanecarboxylic Acid (Optically Active Substance)], the IC50 came out at 890 nM in test [1] (setting [4]), 23 nM in test [2] (setting [5]) and 26 nM in test [3]. The “inhibitory activities against 20-HETE producing enzymes compared to compound A and compound B” value in test [3] is “stronger inhibitory activities”.

On to `O=C(O)C1CC1c1cccc(COc2ccc(-c3ccn[nH]3)nc2)c1` (single isomer, unassigned) [Example 26-3, trans-2-[3-[[6-(1H-Pyrazol-5-yl)-3-pyridinyl]oxymethyl]phenyl]-1-cyclopropanecarboxylic Acid (Optically Active Substance, Enantiomer of Compound of Example 26-2)], for which the 50% inhibitory concentration (IC50) in test [1] (setting [4]) worked out at 1500 nM; in test [2] (setting [5]), 24 nM; in test [3], 30 nM. Moreover, the “inhibitory activities against 20-HETE producing enzymes compared to compound A and compound B” value in test [3] is “stronger inhibitory activities”.

For `CC(=O)N1CCN(CCOc2ccc(-c3ccn[nH]3)cc2)CC1` [Compound A, reference compound], the values for the IC50 in test [1] (setting [4]), in test [2] (setting [5]) and in test [3] were 1000 nM, 11000 nM and 408 nM, respectively.

Consider `CCOC(=O)N1CCN(CCOc2ccc(-c3ccn[nH]3)cn2)CC1` [Compound B, reference compound], for which the IC50 in test [1] (setting [4]) was 36000 nM; in test [2] (setting [5]), more than 50000 nM; in test [3], 15600 nM.

As to `O=C(O)C12CC(CCCCCCOc3ccc(-c4ccn[nH]4)nc3)(C1)C2` [Example 1-53], the concentration for half-maximal inhibition (IC50) in test [1] (setting [4]) was 330 nM; in test [2] (setting [5]) it was 61 nM; in test [3], 14 nM. The “inhibitory activities against 20-HETE producing enzymes compared to compound A and compound B” value in test [3] is “stronger inhibitory activities”.

Take `O=C(O)C1CCc2ccc(COc3ccc(-c4ccn[nH]4)nc3)cc2C1` (centres unmarked) [Example 1-56]: the IC50 was found to be 170 nM in test [1] (setting [4]), 27 nM in test [2] (setting [5]) and 20 nM in test [3]. Also, in test [3], the “inhibitory activities against 20-HETE producing enzymes compared to compound A and compound B” value is on record as “stronger inhibitory activities”.

In the case of `CC(C)(COCCCCCCOc1ccc(-c2ccn[nH]2)nc1)C(=O)O` [Example 1-57, 2,2-Dimethyl-3-[6-[[6-(1H-pyrazol-5-yl)-3-pyridinyl]oxy]hexoxy]propanoic Acid], the IC50 in test [1] (setting [4]) was 340 nM; in test [2] (setting [5]) it was 110 nM; in test [3] it was 19 nM. In addition, the “inhibitory activities against 20-HETE producing enzymes compared to compound A and compound B” value in test [3] was “stronger inhibitory activities”.

As for `O=C(O)C1COc2ccc(COc3ccc(-c4ccn[nH]4)nc3)cc2C1` (centres unmarked) [Example 1-68], the values for the IC50 in test [1] (setting [4]), in test [2] (setting [5]) and in test [3] were 640 nM, 28 nM and 26 nM, respectively. Besides, the “inhibitory activities against 20-HETE producing enzymes compared to compound A and compound B” value in test [3] was “stronger inhibitory activities”.

As for `O=C(O)C1CCc2ccc(COc3ccc(-c4ccn[nH]4)nc3)cc2O1` (centres unmarked) [Example 1-70], the values for the IC50 in test [1] (setting [4]), in test [2] (setting [5]) and in test [3] were 140 nM, 62 nM and 37 nM, respectively. Also, the “inhibitory activities against 20-HETE producing enzymes compared to compound A and compound B” value in test [3] is on record as “stronger inhibitory activities”.

For the compound `O=C(O)C1(CCCCCCCCOc2ccc(-c3ccn[nH]3)nc2)CCOCC1` [Example 3-1, 4-[8-[[6-(1H-Pyrazol-5-yl)-3-pyridinyl]oxy]octyl]-4-oxanecarboxylic Acid], the IC50 in test [1] (setting [4]) was 24 nM; in test [2] (setting [5]), 190 nM; in test [3], 10 nM. In test [3], the “inhibitory activities against 20-HETE producing enzymes compared to compound A and compound B” value is reported as “stronger inhibitory activities”.

For the compound `O=C(O)c1ccc2c(c1)CC(COc1ccc(-c3ccn[nH]3)nc1)CC2` (centres unmarked) [Example 5-1, 7-[[6-(1H-Pyrazol-5-yl)-3-pyridinyl]oxymethyl]-5,6,7,8-tetrahydronaphthalene-2-carboxylic Acid], the IC50 in test [1] (setting [4]) turned out to be 33 nM; in test [2] (setting [5]), 22 nM; in test [3], 8.2 nM. Moreover, the “inhibitory activities against 20-HETE producing enzymes compared to compound A and compound B” value in test [3] is listed as “stronger inhibitory activities”.

Take `O=C(O)C1CCCN(S(=O)(=O)c2cccc(COc3ccc(-c4ccn[nH]4)nc3)c2)C1` (centres unmarked) [Example 22-9]: the figures for the IC50 in test [1] (setting [4]), in test [2] (setting [5]) and in test [3] were 180 nM, 45 nM and 15 nM, respectively. Further, in test [3], the “inhibitory activities against 20-HETE producing enzymes compared to compound A and compound B” value is on record as “stronger inhibitory activities”.

`O=C(O)C1(F)CCN(S(=O)(=O)c2cccc(COc3ccc(-c4ccn[nH]4)nc3)c2)C1` (centres unmarked) [Example 22-11]: the half-inhibitory concentration (IC50) in test [1] (setting [4]) came to 700 nM; in test [2] (setting [5]) it was 28 nM; in test [3] it was 15 nM. Moreover, in test [3], the “inhibitory activities against 20-HETE producing enzymes compared to compound A and compound B” value is listed as “stronger inhibitory activities”.

`CC(C)(COc1cc(COc2ccc(-c3ccn[nH]3)nc2)ccn1)C(=O)O` [Example 22-14]: the IC50 in test [1] (setting [4]) was 380 nM; in test [2] (setting [5]) it was 70 nM; in test [3] it was 32 nM. Also, the “inhibitory activities against 20-HETE producing enzymes compared to compound A and compound B” value in test [3] is reported as “stronger inhibitory activities”.

Turning to `CC(=O)N1CCC(CCCCCCCCOc2ccc(-c3ccn[nH]3)nc2)(C(=O)O)C1` (centres unmarked) [Example 72-9], the IC50 stood at 18 nM in test [1] (setting [6]) and 230 nM in test [2] (setting [7]).

For `O=C(O)C1(Cc2ccc(CCOc3ccc(-c4ccn[nH]4)nc3)cc2)CC1` [Example 74-1], the IC50 in test [1] (setting [6]) stood at 1100 nM; in test [2] (setting [7]), 130 nM.

For `O=C(O)C1CC1c1cccc(CCOc2ccc(-c3ccn[nH]3)nc2)c1F` (centres unmarked) [Example 74-3], the IC50 in test [1] (setting [6]) amounted to 60 nM; in test [2] (setting [7]), 88 nM.

As to `O=C(O)C1CC1c1ccc(F)c(CCOc2ccc(-c3ccn[nH]3)nc2)c1` (centres unmarked) [Example 74-6], the results for the IC50 in test [1] (setting [6]) and in test [2] (setting [7]) were 16000 nM and 35 nM, respectively.

Consider `O=C(O)C1CC1c1cc(F)cc(CCOc2ccc(-c3ccn[nH]3)nc2)c1` (centres unmarked) [Example 74-9], for which the IC50 was determined as 19000 nM in test [1] (setting [6]) and 47 nM in test [2] (setting [7]).

For the compound `O=C(O)C1(Cc2ccc(CCOc3ccc(-c4ccn[nH]4)nc3)cc2)COC1` [Example 74-12, 3-[[4-[2-[6-(1H-Pyrazol-5-yl)pyridin-3-yl]oxyethyl]phenyl]methyl]oxetane-3-carboxylic Acid], the IC50 in test [1] (setting [6]) is 13000 nM; in test [2] (setting [7]) it was 510 nM.

Turning to `CC(C)(NS(=O)(=O)c1cccc(COc2ccc(-c3ccn[nH]3)nc2)c1)C(=O)O` [Example 75-1], the values for the IC50 in test [1] (setting [6]) and in test [2] (setting [7]) were 9300 nM and 21 nM, respectively.

`CN(CC(C)(C)C(=O)O)S(=O)(=O)c1cccc(COc2ccc(-c3ccn[nH]3)nc2)c1` [Example 75-2]: the IC50 in test [1] (setting [6]) amounted to 130 nM; in test [2] (setting [7]) it was 38 nM.

Take `CC(C)(CNS(=O)(=O)c1cccc(COc2ccc(-c3ccn[nH]3)nc2)c1)C(=O)O` [Example 75-3]: the IC50 in test [1] (setting [6]) was determined as 490 nM; in test [2] (setting [7]) it was 36 nM.

As to `CN(C(C)(C)C(=O)O)S(=O)(=O)c1cccc(COc2ccc(-c3ccn[nH]3)nc2)c1` [Example 75-4], the figures for the IC50 in test [1] (setting [6]) and in test [2] (setting [7]) were 29000 nM and 43 nM, respectively.

Consider `CC(C)(COc1ccc(COc2ccc(-c3ccn[nH]3)nc2)cn1)C(=O)O` [Example 75-5], for which the IC50 in test [1] (setting [6]) is 780 nM; in test [2] (setting [7]), 720 nM.

On to `CC(C)(COc1cccc(COc2ccc(-c3ccn[nH]3)nc2)n1)C(=O)O` [Example 75-6], for which the IC50 in test [1] (setting [6]) stood at 1700 nM; in test [2] (setting [7]), 180 nM.

In the case of `CC(C)(OCCCCCCCOc1ccc(-c2cnco2)nc1)C(=O)O` [Example 76-1, 2-Methyl-2-[7-[6-(1,3-oxazol-5-yl)pyridin-3-yl]oxyheptoxy]propanoic Acid], the values for the IC50 in test [1] (setting [6]) and in test [2] (setting [7]) were 1500 nM and 740 nM, respectively.
